In patent publication US8778871B2 (Takeda Pharmaceutical Company Limited, priority 2004, dated 2014):
Non-standard residues stand in square brackets, D forms with d. Residues, ends and D or L forms follow the SMILES beside them. No end group written: not given here. *: point of attachment. 2Nal = N[C@@H](Cc1ccc2ccccc2c1)C(=O)O; Arg(Me) = CNC(=N)NCCC[C@H](N)C(=O)O; dNMeY = CN[C@H](Cc1ccc(O)cc1)C(=O)O; Tic = O=C(O)[C@@H]1Cc2ccccc2CN1; Cha = N[C@@H](CC1CCCCC1)C(=O)O; X4 = NC(=S)[C@H](Cc1ccccc1)N*; Nva = CCC[C@H](N)C(=O)O; Abu = CC[C@H](N)C(=O)O; Hexanoyl = CCCCCC(=O)*; azaGly = NNC(=O)O

Key:
hOT7T175 [1] = molecular target: T1, hOT7T175 (Homo sapiens, UniProt Q969F8, L364H); assay type: cell-based; settings: hOT7T175/CHO, FLIPR, evaluation for 40 seconds after initiation of the reaction
T1 construct: expressed in transfected cells
T1 sequence (Q969F8 whole entry L364H): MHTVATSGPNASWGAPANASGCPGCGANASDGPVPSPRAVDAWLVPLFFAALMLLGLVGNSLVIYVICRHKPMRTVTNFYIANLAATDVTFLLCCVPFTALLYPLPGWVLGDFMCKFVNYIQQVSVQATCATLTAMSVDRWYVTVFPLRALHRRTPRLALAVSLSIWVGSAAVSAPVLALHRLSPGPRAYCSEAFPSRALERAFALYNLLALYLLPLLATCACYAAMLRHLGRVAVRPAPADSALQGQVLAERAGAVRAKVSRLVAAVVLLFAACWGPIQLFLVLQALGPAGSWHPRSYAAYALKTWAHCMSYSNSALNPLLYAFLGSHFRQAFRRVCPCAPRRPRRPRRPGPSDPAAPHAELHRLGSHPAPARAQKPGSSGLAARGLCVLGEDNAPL
Description: The intracellular Ca ion level-increasing activity was measured using FLIPR as in TEST EXAMPLE 2.

[2] = Action of reducing testosterone level in blood in mature male rat (1 mM peptide in 50% DMSO, ALZET osmotic pump); assay type: in vivo; settings: 1 mM peptide in 50% DMSO aqueous solution, ALZET osmotic pump s.c., six days
Description: The peptide was encapsulated in five ALZET osmotic pump (Model 2001, 0.2 ml of volume, releasing rate 0.001 ml/hr, DURECT Corporation). The ALZET pumps encapsulated with the peptide solution were implanted to dorsal subcutaneous of five male CD (SD) IGS rat at nine weeks age (Charles River Japan, Inc.) anesthesized with ether for one pump to one rat. Separately, for negative controls, the ALZET osmotic pumps encapsulated with distilled water were implanted to five male CD (SD) IGS rat (Charles River Japan, Inc.) The rats were bred for six days under the normal conditions. After weighing, blood was collected by decapitation. To 1 ml of blood, 0.03 ml of aprotinin (Trasylol, Byer) solution containing 0.1 g/ml EDTA 2Na was added. The plasma was isolated by centrifugation at 1,800×g for 25 minutes and collected. The thus obtained plasma, 0.05 ml was effected by radioimmunoassay. (DPC Total Testosterone Kit, Diagnostic Products Corporation) to measure testosterone level in blood of each rat. The value beneath measuring limit of radioimmunoassay (0.04 ng/ml as concentration of plasma) was treated as zero. The mean values for testosterone level of five rats, to which the peptide was given, was calculated and the relative value (percentage) for the mean values of testosterone level of five rats, to which distilled watrer was given, was estimated.

hOT7T175 [3] = molecular target: T1, hOT7T175; assay: Intracellular Ca ion level-increasing activity using FLIPR (180 seconds; specific activity to Metastin (1-54)); assay type: cell-based; settings: hOT7T175/CHO, relative to Metastin (1-54) = 1

| Compound | Specific Act. (EC50/MS10 EC50) (hOT7T175 [1]) | Testosterone level in Blood [2] | Specific Act. (intracellular Ca ion level-increasing activity, specific activity to Metastin (1-54)) (hOT7T175 [3]) |
| --- | --- | --- | --- |
| Ac-D-Tyr-D-Trp-Asn-Thr-Pya(4)-AzaGly-Leu-Arg(Me)-Trp-NH2 [Compound No. 635] | 1.4 | 2% | – |
| Ac-[dY][dW]NTF[azaGly]L[Arg(Me)][Cha]-NH2 [Compound No. 595] | 11.4 | 3% | – |
| Ac-[dY][Tic]NTF[azaGly]L[Arg(Me)]W-NH2 [Compound No. 662] | 0.7 | 2% | – |
| Ac-D-Tyr-D-Trp-Asn-Thr-Phe-AzaGly-Nva-Arg(Me)-Trp-NH2 (Ac-[dY][dW]NTF[azaGly][Nva][Arg(Me)]W-NH2; SMILES CCC[C@H](NC(=O)NNC(=O)[C@H](Cc1ccccc1)NC(=O)[C@@H](NC(=O)[C@H](CC(N)=O)NC(=O)[C@@H](Cc1c[nH]c2ccccc12)NC(=O)[C@@H](Cc1ccc(O)cc1)NC(C)=O)[C@@H](C)O)C(=O)N[C@@H](CCCNC(=N)NC)C(=O)N[C@@H](Cc1c[nH]c2ccccc12)C(N)=O) [Compound No. 677] | 0.3 | 2% | – |
| D-Tyr-D-Tyr-D-Trp-Asn-Thr-Phe-AzaGly-Leu-Arg(Me)-Trp-NH2 ([dY][dY][dW]NTF[azaGly]L[Arg(Me)]W-NH2; N-terminus assumed; SMILES CNC(=N)NCCC[C@H](NC(=O)[C@H](CC(C)C)NC(=O)NNC(=O)[C@H](Cc1ccccc1)NC(=O)[C@@H](NC(=O)[C@H](CC(N)=O)NC(=O)[C@@H](Cc1c[nH]c2ccccc12)NC(=O)[C@@H](Cc1ccc(O)cc1)NC(=O)[C@H](N)Cc1ccc(O)cc1)[C@@H](C)O)C(=O)N[C@@H](Cc1c[nH]c2ccccc12)C(N)=O) [Compound No. 650] | 0.6 | 2% | – |
| Ac-[dY][dL]NTF[azaGly]L[Arg(Me)]W-NH2 [Compound No. 626] | 2.1 | 2% | – |
| Ac-[dY][dA]NTF[azaGly]L[Arg(Me)]W-NH2 [Compound No. 625] | 2.8 | 2% | – |
| D-Tyr-D-Pya(4)-Asn-Ser-Phe-AzaGly-Leu-Arg(Me)-PheΨ(CSNH)NH2 [Compound No. 548] | 1.7 | 18% | – |
| Ac-[dY][dW]NTF[azaGly]L[Arg(Me)][2Nal]-NH2 [Compound No. 589] | 2.3 | 2% | – |
| Ac-[dF][dW]NTF[azaGly]L[Arg(Me)]W-NH2 [Compound No. 618] | 1.6 | 2% | – |
| Ac-[dY][dE]NTF[azaGly]L[Arg(Me)]W-NH2 [Compound No. 630] | 4.2 | 2% | – |
| Ac-Tyr-Trp-Asn-Thr-Phe-AzaGly-Leu-Arg(Me)-Trp-NH2 (Ac-YWNTF[azaGly]L[Arg(Me)]W-NH2; SMILES CNC(=N)NCCC[C@H](NC(=O)[C@H](CC(C)C)NC(=O)NNC(=O)[C@H](Cc1ccccc1)NC(=O)[C@@H](NC(=O)[C@H](CC(N)=O)NC(=O)[C@H](Cc1c[nH]c2ccccc12)NC(=O)[C@H](Cc1ccc(O)cc1)NC(C)=O)[C@@H](C)O)C(=O)N[C@@H](Cc1c[nH]c2ccccc12)C(N)=O) [Compound No. 664] | 0.6 | 6% | – |
| Ac-[dNMeY][dW]NTF[azaGly]L[Arg(Me)]W-NH2 [Compound No. 602] | 2.4 | 2% | – |
| Ac-[dY]WNTF[azaGly]L[Arg(Me)]W-NH2 [Compound No. 623] | 0.6 | 2% | – |
| Ac-[dY][dW]NTFGL[Arg(Me)]W-NH2 [Compound No. 598] | 0.3 | 2% | – |
| Hexanoyl-D-Trp-Asn-Thr-Phe-AzaGly-Leu-Arg(Me)-Trp-NH2 (Hexanoyl-[dW]NTF[azaGly]L[Arg(Me)]W-NH2; SMILES CCCCCC(=O)N[C@H](Cc1c[nH]c2ccccc12)C(=O)N[C@@H](CC(N)=O)C(=O)N[C@H](C(=O)N[C@@H](Cc1ccccc1)C(=O)NNC(=O)N[C@@H](CC(C)C)C(=O)N[C@@H](CCCNC(=N)NC)C(=O)N[C@@H](Cc1c[nH]c2ccccc12)C(N)=O)[C@@H](C)O) [Compound No. 667] | 1.4 | 2% | – |
| Ac-D-Tyr-D-Pya(2)-Asn-Thr-Phe-AzaGly-Leu-Arg(Me)-Trp-NH2 [Compound No. 658] | 0.4 | 2% | – |
| Ac-[dK][dW]NTF[azaGly]L[Arg(Me)]W-NH2 [Compound No. 621] | 1.9 | 2% | – |
| CNC(=N)NCCC[C@H](NC(=O)[C@H](CC(C)C)NC(=O)NNC(=O)[C@H](Cc1ccccc1)NC(=O)[C@H](CO)NC(=O)[C@H](CC(N)=O)NC(=O)[C@H](Cc1c[nH]c2ccccc12)NC(=O)[C@H](CC(N)=O)NC(=O)[C@H](N)Cc1ccc(O)cc1)C(=O)N[C@@H](Cc1ccccc1)C(N)=O [Compound No. 232, D-Tyr-Asn-Trp-Asn-Ser-Phe-AzaGly-Leu-Arg(Me)-Phe-NH2] | 3.9 | – | 3 |
| CC(C)C[C@H](NC(=O)CNC(=O)[C@H](Cc1ccccc1)NC(=O)[C@H](CO)NC(=O)[C@H](CC(N)=O)NC(=O)[C@H](Cc1c[nH]c2ccccc12)NC(=O)[C@@H](CC(N)=O)NC(=O)[C@@H](N)Cc1ccc(O)cc1)C(=O)N[C@@H](CCCNC(=N)N)C(=O)N[C@@H](Cc1ccccc1)C(N)=O [Compound No. 41] | 2.7 | – | 10 |
| CC(C)C[C@H](NC(=O)CNC(=O)[C@H](Cc1ccccc1)NC(=O)[C@H](CO)NC(=O)[C@H](CC(N)=O)NC(=O)[C@@H](Cc1c[nH]c2ccccc12)NC(=O)[C@H](CC(N)=O)NC(=O)[C@@H](N)Cc1ccc(O)cc1)C(=O)N[C@@H](CCCNC(=N)N)C(=O)N[C@@H](Cc1ccccc1)C(N)=O [Compound No. 40] | 1.6 | – | 30 |
| CC[C@H](NC(=O)CNC(=O)[C@H](Cc1ccccc1)NC(=O)[C@H](CO)NC(=O)[C@H](CC(N)=O)NC(=O)[C@H](Cc1c[nH]c2ccccc12)NC(=O)[C@H](CC(N)=O)NC(=O)[C@@H](N)Cc1ccc(O)cc1)C(=O)N[C@@H](CCCNC(=N)N)C(=O)N[C@@H](Cc1ccccc1)C(N)=O [Compound No. 187, Tyr-Asn-Trp-Asn-Ser-Phe-Gly-Abu-Arg-Phe-NH2] (H-YNWNSFG[Abu]RF-NH2) | 1.9 | – | 1 |
| CNC(=N)NCCC[C@H](NC(=O)[C@H](CC(C)C)NC(=O)CNC(=O)[C@H](Cc1ccccc1)NC(=O)[C@H](CO)NC(=O)[C@H](CC(N)=O)NC(=O)[C@H](Cc1c[nH]c2ccccc12)NC(=O)[C@H](CC(N)=O)NC(=O)[C@H](N)Cc1ccc(O)cc1)C(=O)N[C@@H](Cc1c[nH]c2ccccc12)C(N)=O [Compound No. 174] (H-[dY]NWNSFGL[Arg(Me)]W-NH2) | 2.3 | – | 10 |
| CC(C)C[C@H](NC(=O)CNC(=O)[C@H](Cc1ccccc1)NC(=O)[C@H](CO)NC(=O)[C@H](CC(N)=O)NC(=O)[C@H](Cc1c[nH]c2ccccc12)NC(=O)[C@H](CC(N)=O)NC(=O)[C@H](N)Cc1ccc(O)cc1)C(=O)N[C@@H](CCCNC(=N)N)C(=O)N[C@@H](Cc1ccccc1)C(N)=S [Compound No. 146] (H-[dY]NWNSFGLR-X4) | 1.5 | – | 10 |
| CC[C@H](C)[C@H](NC(=O)[C@H](CC(N)=O)NC(=O)[C@H](N)Cc1ccc(O)cc1)C(=O)N[C@@H](CC(N)=O)C(=O)N[C@@H](CO)C(=O)N[C@@H](Cc1ccccc1)C(=O)NCC(=O)N[C@@H](CC(C)C)C(=O)N[C@@H](CCCNC(=N)NC)C(=O)N[C@@H](Cc1ccccc1)C(N)=O [Compound No. 206] (H-[dY]NINSFGL[Arg(Me)]F-NH2) | 4.8 | – | 10 |
| CNC(=N)NCCC[C@H](NC(=O)[C@H](CC(C)C)NC(=O)NNC(=O)[C@H](Cc1ccccc1)NC(=O)[C@H](CO)NC(=O)[C@H](CC(N)=O)NC(=O)[C@@H](NC(=O)[C@H](N)Cc1ccc(O)cc1)[C@@H](C)O)C(=O)N[C@@H](Cc1ccccc1)C(N)=O [Compound No. 241, D-Tyr-Thr-Asn-Ser-Phe-AzaGly-Leu-Arg(Me)-Phe-NH2] (H-[dY]TNSF[azaGly]L[Arg(Me)]F-NH2) | 5.3 | – | 1 |
| H-YNWNSFGLRY-NH2 [Compound No. 109] | 2.6 | – | 20 |
